ChEMBL document CHEMBL1201862, “PubChem BioAssay data set” (2004)
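Cultured in 96-well plates, cells were exposed to test compound for 48 hours across five concentrations. GI50 is the concentration that inhibits growth by half.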 The source made the active and inactive calls. Cut-off read from the data, not from the text of the source: active = GI50 up to about 1.1 µM and inactive = higher.

Key:
Assay in all cases: inhibition of tumour cell growth, NCI panel, 48 h
[1] = system: OVCAR-5
[2] = system: SK-MEL-2
[3] = system: PC-3
[4] = system: DU-145
[5] = system: HOP-62
[6] = system: U-251
[7] = system: TK-10
[8] = system: HL-60
[9] = system: ACHN
[10] = system: MDA-N
[11] = system: KM12
[12] = system: 786-0
[13] = system: SK-MEL-28
[14] = system: OVCAR-4
[15] = system: Malme-3M
[16] = system: UO-31
[17] = system: NCI/ADR-RES
[18] = system: SK-OV-3
[19] = system: SF-539
[20] = system: M14

Row | Compound | GI50 [1] | GI50 [2] | GI50 [3] | GI50 [4] | GI50 [5] | GI50 [6] | GI50 [7] | GI50 [8] | GI50 [9] | GI50 [10] | GI50 [11] | GI50 [12] | GI50 [13] | GI50 [14] | GI50 [15] | GI50 [16] | GI50 [17] | GI50 [18] | GI50 [19] | GI50 [20]
1 | CCSc1nc(N2CCCC2)s[s+]1.[O-][Cl+3]([O-])([O-])[O-] | > 100 µM (inactive) | 60.7 µM (inactive) | 31.7 µM (inactive) | > 100 µM (inactive) | 56.5 µM (inactive) | 56.4 µM (inactive) | 90.8 µM (inactive) | 2.92 µM (inactive) | 54.3 µM (inactive) | 16.3 µM (inactive) | 39.4 µM (inactive) | 58.1 µM (inactive) | 36.5 µM (inactive) | 50.8 µM (inactive) | 53.3 µM (inactive) | 42.1 µM (inactive) | > 100 µM (inactive) | 84.1 µM (inactive) | 43 µM (inactive) | 25.4 µM (inactive)
2 | Cc1sc(/N=C/c2c[nH]c3ccccc23)c(C#N)c1C | > 100 µM (inactive) | 30.5 µM (inactive) | 45.7 µM (inactive) | 55.6 µM (inactive) | 34.2 µM (inactive) | 21.5 µM (inactive) | 20 µM (inactive) | 21.2 µM (inactive) | 29.6 µM (inactive) | 53.7 µM (inactive) | 13.7 µM (inactive) | 27.4 µM (inactive) | > 100 µM (inactive) | 35.2 µM (inactive) | 25.9 µM (inactive) | 48 µM (inactive) | 74.6 µM (inactive) | 88.7 µM (inactive) | 40.4 µM (inactive) | 22 µM (inactive)
3 | Cc1nc(-c2ccccc2)cn2c1nc1ccccc12 | > 31.6 µM (inactive) | 20.2 µM (inactive) | 24.7 µM (inactive) | 31.8 µM (inactive) | 20.9 µM (inactive) | 18.6 µM (inactive) | 29.3 µM (inactive) | 67 µM (inactive) | 21.7 µM (inactive) | 21.8 µM (inactive) | 20.8 µM (inactive) | 21 µM (inactive) | 30.5 µM (inactive) | 20.9 µM (inactive) | 23.9 µM (inactive) | 13.6 µM (inactive) | 20.9 µM (inactive) | 6.32 µM (inactive) | 23.1 µM (inactive) | 30.5 µM (inactive)
4 | CC(C)NC(=O)OCc1c(COC(=O)NC(C)C)c(-c2cc[n+](COC(=O)C(C)(C)C)cc2)n2c1CCC2 | > 100 µM (inactive) | > 100 µM (inactive) | > 100 µM (inactive) | > 100 µM (inactive) | > 100 µM (inactive) | > 100 µM (inactive) | > 100 µM (inactive) | > 100 µM (inactive) | 61.9 µM (inactive) | > 100 µM (inactive) | > 100 µM (inactive) | > 100 µM (inactive) | > 100 µM (inactive) | > 100 µM (inactive) | > 100 µM (inactive) | > 100 µM (inactive) | > 100 µM (inactive) | > 100 µM (inactive) | > 100 µM (inactive) | > 100 µM (inactive)
5 | O=C(NC1CCN(Cc2ccccc2)CC1)c1ccc(I)cc1 | > 100 µM (inactive) | 75.9 µM (inactive) | 62.7 µM (inactive) | 91.6 µM (inactive) | 55.6 µM (inactive) | 81.1 µM (inactive) | > 100 µM (inactive) | > 100 µM (inactive) | 96.2 µM (inactive) | 54.6 µM (inactive) | > 100 µM (inactive) | 97.5 µM (inactive) | 63.2 µM (inactive) | > 100 µM (inactive) | 1.98 µM (inactive) | 22.9 µM (inactive) | > 100 µM (inactive) | 44.1 µM (inactive) | 78.3 µM (inactive) | 39 µM (inactive)
6 | CN(C)CCCn1c(Cc2ccc(Cl)cc2)nc2cc(C(F)(F)F)ccc21 | 17.7 µM (inactive) | 16.9 µM (inactive) | 15.4 µM (inactive) | 14.1 µM (inactive) | 15.2 µM (inactive) | 15.3 µM (inactive) | 15.3 µM (inactive) | 29.6 µM (inactive) | 13.2 µM (inactive) | 12 µM (inactive) | 14.3 µM (inactive) | 13.9 µM (inactive) | 17.9 µM (inactive) | 13.6 µM (inactive) | 11 µM (inactive) | 0.301 µM (active) | 15.7 µM (inactive) | 14.4 µM (inactive) | 16.3 µM (inactive) | 12.7 µM (inactive)
7 | N#Cc1nc(/C=C/c2cccnc2)oc1N | > 100 µM (inactive) | > 100 µM (inactive) | > 100 µM (inactive) | > 100 µM (inactive) | > 100 µM (inactive) | > 100 µM (inactive) | > 100 µM (inactive) | > 100 µM (inactive) | > 100 µM (inactive) | > 100 µM (inactive) | > 100 µM (inactive) | > 100 µM (inactive) | > 100 µM (inactive) | > 100 µM (inactive) | > 100 µM (inactive) | > 100 µM (inactive) | > 100 µM (inactive) | > 100 µM (inactive) | > 100 µM (inactive) | > 100 µM (inactive)
